For 19 molecules, IC50 results are on record in ChEMBL document CHEMBL5725459, “(R)-2-methyl-piperazine derivatives as CXCR3 receptor modulators” (2018).

In this test the target is T1, C-X-C chemokine receptor type 3 (Homo sapiens, UniProt P49682).
T1 sequence (P49682 whole entry): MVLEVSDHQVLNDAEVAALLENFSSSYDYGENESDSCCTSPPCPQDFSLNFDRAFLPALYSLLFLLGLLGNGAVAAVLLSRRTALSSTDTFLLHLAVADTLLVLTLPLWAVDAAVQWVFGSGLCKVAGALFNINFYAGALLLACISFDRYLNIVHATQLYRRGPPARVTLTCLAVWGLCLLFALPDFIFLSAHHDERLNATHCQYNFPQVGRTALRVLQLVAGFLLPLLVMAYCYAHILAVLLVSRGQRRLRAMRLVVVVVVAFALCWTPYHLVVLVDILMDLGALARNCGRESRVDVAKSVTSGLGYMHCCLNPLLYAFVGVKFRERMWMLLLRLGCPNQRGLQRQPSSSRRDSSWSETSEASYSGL
Put plainly: Receptor Internalization Assay (RIA): Stock solutions of test compounds are made up at a concentration of 10 mM in DMSO, and serially diluted in PBS containing 0.5% BSA to concentrations required for inhibition dose response curves. Diluted compounds are then mixed with an equal volume of CXCL10 (Peprotech) diluted in PBS. Anticoagulated venous human whole blood is added to the mixture, which is then incubated in a CO2 incubator at 37° C. to allow for ligand mediated receptor internalization (final CXCL10 concentration is 9 nM). After 30 min, the blood is mixed with fluorescently labeled CXCR3 and CD4 specific antibodies (Becton Dickinson) and incubated on ice for 10 minutes. Samples are then mixed with BD FACS Lysing Solution (Becton Dickinson) in order to eliminate red blood cells. After washing the cells with PBS containing 0.5% BSA, the samples are then analyzed in a flow cytometer (FACS Canto II, Becton Dickinson). For data analysis using FACSDiva software (Becton Dickinson), the mean fluorescence corresponding to CXCR3 cell surface expression was determined on CD4 positive cells. The calculated IC50 values may fluctuate depending on the daily assay performance. Fluctuations of this kind are known to those skilled in the art. In the case where IC50 values have been determined several times for the same compound, mean values are given.
Take `CC(C)c1ncn(CC(=O)N2C(C)CNCC2c2sc(C(F)(F)F)cc2-c2cnc(C3CC3)nc2)n1` (centres undefined): the IC50 was 524 nM.
In the case of `COCc1ncn(CC(=O)N2C(C)CNCC2c2sc(C(F)(F)F)cc2-c2cnc(C3CC3)nc2)n1` (centres undefined) it was 1390 nM; in that of `CCc1ncn(CC(=O)N2C(C)CNCC2c2sc(C(F)(F)F)cc2-c2cnc(C(F)(F)F)nc2)n1` (centres undefined), 148 nM.
With `CC1CNCC(c2sc(C(F)(F)F)cc2-c2cnc(C(F)(F)F)nc2)N1C(=O)Cn1cnc(C(N)=O)n1` (centres undefined), the IC50 is 1710 nM.
Turning to `CC1CNCC(c2sc(C(F)(F)F)cc2-c2cnc(C(F)(F)F)nc2)N1C(=O)Cn1cnc(C(C)(C)C)n1` (centres undefined), the IC50 is 349 nM.
For the molecule `CC1CNCC(c2sc(C(F)(F)F)cc2-c2cnc(C(F)(F)F)nc2)N1C(=O)Cn1cnc(CO)n1` (centres undefined), the IC50 is 809 nM.
Next, `CC1CNCC(c2sc(C(F)(F)F)cc2-c2cnc(C3CC3)nc2)N1C(=O)Cn1cnc(C(C)(C)C)n1` (centres undefined): 679 nM; `CCCc1ncn(CC(=O)N2C(C)CNCC2c2sc(C(F)(F)F)cc2-c2cnc(C(F)(F)F)nc2)n1` (centres undefined): 221 nM.
For `CCc1ncn(CC(=O)N2C(C)CNCC2c2sc(C(F)(F)F)cc2-c2cnc(C3CC3)nc2)n1` (centres undefined), the IC50 is 190 nM.
As to `Cc1ncn(CC(=O)N2C(C)CNCC2c2sc(C(F)(F)F)cc2-c2cnc(C3CC3)nc2)n1` (centres undefined), the IC50 was 462 nM.
In the case of `COCc1ncn(CC(=O)N2C(C)CNCC2c2sc(C(F)(F)F)cc2-c2cnc(C(F)(F)F)nc2)n1` (centres undefined) it was 606 nM.
`CC1CNCC(c2sc(C(F)(F)F)cc2-c2cnc(C(F)(F)F)nc2)N1C(=O)Cn1cnc(C(C)(C)O)n1` (centres undefined): the IC50 is 830 nM.
For the molecule `Cc1ncn(CC(=O)N2C(C)CNCC2c2sc(C(F)(F)F)cc2-c2cnc(C(F)(F)F)nc2)n1` (centres undefined), the IC50 is 189 nM.
Regarding `CCOc1ncc(-c2cc(C(F)(F)F)sc2C2CNCC(C)N2C(=O)Cn2cnc(CC)n2)cn1` (centres undefined), the IC50 is 235 nM.
Next, `CCOc1ncc(-c2cc(C(F)(F)F)sc2C2CNCC(C)N2C(=O)Cn2cnc(C(C)(C)C)n2)cn1` (centres undefined): 552 nM.
In the case of `CCOc1ncc(-c2cc(C(F)(F)F)sc2C2CNCC(C)N2C(=O)Cn2cnc(C)n2)cn1` (centres undefined) it was 211 nM.
In the case of `CCOc1ncc(-c2cc(C(F)(F)F)sc2C2CNCC(C)N2C(=O)Cn2cnc(COC)n2)cn1` (centres undefined), the IC50 was 950 nM.
`CC(C)c1ncn(CC(=O)N2C(C)CNCC2c2sc(C(F)(F)F)cc2-c2cnc(C(F)(F)F)nc2)n1` (centres undefined): the IC50 is 174 nM.
Next, `CCOc1ncc(-c2cc(C(F)(F)F)sc2C2CNCC(C)N2C(=O)Cn2cnc(C(C)C)n2)cn1` (centres undefined): 299 nM.

One may read the IC50 as the concentration that inhibits the measured activity by half.
